Key:
IgE = assay: Determination of IgE produced in in vitro culture of spleen cells from DNP-As immunized mice (ELISA); format: cell-based, BALB/c mice; conditions: Mus musculus, 96 h, 4 days culture, 37° C.; for inhibition at 20 µg/mL: 20 μg/ml; for inhibition at 10 µg/mL: 10 μg/ml
Experimental: (§1) And the inhibitory activities of the quinolizinone derivative of formula (I) are further confirmed by the determination of serum concentrations of Igs in BALB/c mice which are immunized by DNP-As according to a procedure described in Immunology, Vol 21, pp 11-12, 1971.
(§2) BALB/c mice were immunized intraperitoneally with 5 μg of DNP-As adsorbed on 4 mg aluminum hydroxide gel Four weeks after the immunization,the spleens were excised from the mice and 5×10^7 spleen cells were transferred intravenously into the recipient mice which had been exposed to 600 rad of X-ray irradiation. Immediately after cell transfer, the recipients were then immunized intraperitoneally with 5 μg of DNP-As adsorbed on 4 mg aluminum hydroxide gel to induce adoptive secondary immune response. Further 4 weeks after the immunization of recipients, the spleens were excised from them and the spleen cell suspensions containing 5×10^6 cells/ml were cultured with or without a compound to be tested in 96-well micro-titer plates at 37° C. for 4 days. IgE and IgG secreted into the culture supernatant was each determined correspondingly by ELISA and the inhibitory effect was calculated according to the following equation. [formula]

IgG = assay: Determination of IgG (Igs other than IgE) produced in in vitro culture of spleen cells from DNP-As immunized mice (ELISA); format: cell-based, BALB/c mice; conditions: Mus musculus, 96 h, 4 days culture, 37° C.; for inhibition at 20 µg/mL: 20 μg/ml; for inhibition at 10 µg/mL: 10 μg/ml
Experimental: as §1, §2

SMILES | inhibition at 20 µg/mL (IgE) [%] | inhibition at 20 µg/mL (IgG) [%] | inhibition at 10 µg/mL (IgE) [%] | inhibition at 10 µg/mL (IgG) [%]
CCOC(=O)c1c(NCc2ccccn2)c(C#N)c(=O)n2ccccc12 [S-1, 3-Cyano-1-ethoxycarbonyl-2-(2-pyridylmethylamino)-4H-quinolizin-4-one] | 60 | 13 |  | 
CCOC(=O)c1c(NCc2cccnc2)c(C#N)c(=O)n2ccccc12 [S-6, 3-Cyano-1-ethoxycarbonyl-2-(3-pyridylmethylamino)-4H-quinolizin-4-one] | 68 | 16 |  | 
CCOC(=O)c1c(NCc2cnccn2)c(C#N)c(=O)n2ccccc12 [S-14, 3-Cyano-1-ethoxycarbonyl-2-pyrazinylmethylamino-4H-quinolizin-4-one] |  |  | 72 | 1
CCOC(=O)c1c(NCc2nccnc2C)c(C#N)c(=O)n2ccccc12 [S-15, 3-Cyano-1-ethoxycarbonyl-2-(3-methylpyrazinyl)methylamino-4H-quinolizin-4-one] |  |  | 73 | 3
CCOC(=O)c1c(NCc2cnc(C)cn2)c(C#N)c(=O)n2ccccc12 [S-16, 3-Cyano-1-ethoxycarbonyl-2-(5-methylpyrazinyl)-methylamino-4H-quinolizin-4-one] | 68 | 7 |  | 
CCOC(=O)c1c(NCc2cncc(C)n2)c(C#N)c(=O)n2ccccc12 [S-17, 3-Cyano-1-ethoxycarbonyl-2-(6-methylpyrazinyl)-methylamino-4H-quinolizin-4-one] |  |  | 68 | 12
